From patent publication US20040048823A1 (priority 2000, published 2004)

What was measured:
[1] = tested on: Rb protein in SNU475 (Rb-positive cancer cell line); test: Western blot of Rb protein expression after oligonucleotide transfection; format: cell-based, human; settings: SNU475 transfected with 1 uM oligonucleotide, compared to sense Rb oligonucleotide transfectants
Experimental: An Rb-positive cancer cell SNU475 was cultured overnight in 6-well plate (5×10^6 cancer cells per well) with RPMI1640 medium. Sense or antisense Rb oligonucleotide, as described in Example 4, was transfected to the cultured cancer cells using Lipofectamine-PLUS (Gibco BRL, Grand Island, N.Y.) with the following procedures. Sense or antisense Rb oligonucleotide was diluted (final 1 uM) in fetal bovine serum-free RPMI1640 medium. PLUS reagent (Gibco BRL, NY, USA) was added, mixed well, and incubated at room temperature for 15 minutes. During this incubation, Lipofectamine was diluted in fetal bovine serum-fee RPMI1640 medium in separate test tubes. After 15 minutes, 2 solutions were mixed well and incubated at room temperature for 30 minutes for induction of oligonucleotide-Lipofectamine complex formation. During this incubation, the medium in overnight culture of the cancer cells was changed with fresh fetal bovine serum-free RPMI1640 medium. The solution containing oligonucleotide-Lipofectamine complex was carefully dropped on each culture plate and incubated at 37° C. for 3 hours. […]
Nuclear protein fraction was prepared to examine the Rb expression in SNU475 cell line transfected with sense or antisense Rb oligonucleotide by Western blotting. […] The protein concentration in the supernatant was determined and used for Western blotting. […]

[2] = tested on: cancer cell lines (Malme3M, SNU1, MDAMB231, MOLT4, TCCSUP, Hep3B); test: Mycolactone-induced cancer cell death under light microscope; format: cell-based; settings: mycolactone final 1 μg/ml, 72 hours, compared to not-treated
Experimental: Cancer cell lines used for the experiment was as follows; 2 skin cancer cell lines (Malme3M and SK-Mel-24), 1 breast cancer cell line (MDAMB231), 1 leukemia cell line (MOLT4), 1 stomach cancer cell line (SNU1); 1 bladder cancer cell line (TCCSUP), 8 hepatoma cell lines (SK-Hep1, Hep3B, SNU182, SNU387, SNU398, SNU449, SNU475, and HepG2), 2 colon cancer cell lines (HT-29 and DLD-1), and 1 oral cavity cancer cell line (SCC-15). Cancer cells were cultured in RPMI1640 media containing 10% fetal bovine serum, penicillin (10 unit/ml), and streptomycin (100 μg/ml) in 75 cm^2 flask at 37° C. in the presence of 5% CO2.
After cultivation of cancer cells ([…]) in 6-well plate for 24 hours, mycolactone (final 1 μg/ml) was added and the cell morphology was observed after 72 hours under light microscope. Cancer cells became round up and died after mycolactone treatment.
FIGS. (1a to 1f) show the results in skin cancer (Malme3M), stomach cancer (SNU1), breast cancer (MDAMB231), leukemia (MOLT4), bladder cancer (TCCSUP), and hepatoma (Hep3B). The morphological change of colon and oral cavity cancers is not shown.

Hep3B cancer cells = test: Morphological change by transmission electron microscopy; format: cell-based, human; settings: mycolactone 1 μg/ml, 24 hours
Experimental: Morphological change of Hep3B cancer cells was observed by transmission electron microscopy (hereinafter, TEM) Cancer cells (5×10^6) were cultured and treated with mycolactone (1 μg/ml). Cell were collected after 24 hours and fixed with 2.5% glutaraldehyde. The sample was treated with OsO4, dehydrated with ethanol, and embedded to […].

[3] = tested on: CPP32 caspase and poly-ADP-ribose polymerase in Hep3B cancer cells; test: Western blot of CPP32 caspase activation and poly-ADP-ribose polymerase cleavage; format: cell-based, human; settings: mycolactone final 1 μg/ml
Experimental: CPP32 caspase activation and following cleavage of poly-ADP-ribose polymerase, typical biochemical phenomena of apoptosis, were examined by Western-blotting. Hep3B cancer cells (5×10^6) were cultured and treated with mycolactone (final 1 μg/ml). Cells were collected after 2, 4, 8, 12, 24, or 48 hours and Western blot was performed with anti-CPP32 antibody (Oncogene, Mass., USA) or anti-poly-ADP-ribose polymerase antibody (Enzyme Systems Products, CA, USA). Protein preparation was performed as follows. Cells were suspended in 400 μl of lysis buffer (125 mM Tris-HCl [pH 6.8], 20% glycerol, 2% SDS, and 10% β-mercaptoethanol), vortexed for 30 seconds, and kept at 95° C. for 5 minutes Cell lysates were separated on a 10% SDS-polyacrylamide gel and transferred to nitrocellulose membrane. Antibody reaction was performed with the antibodies describe above. CPP32 caspase activation was started at 4 hours and maintained until 24 hours, while the cleavage of poly-ADP-ribose polymerase was started at 8 hours after mycolactone treatment. […] Pro-CPP32 and Active CPP32 as shown on left are CPP32 caspase (the caspase 3) before and after activation, respectively; PARP is poly-ADP-ribose polymerase; cleaved PARP is cleaved poly-ADP-ribose polymerase.

[4] = tested on: bcl-2 family genes in Hep3B cells; test: Ribonuclease protection assay (RPA) of bcl-2 family gene mRNA; format: cell-based, human
Experimental: To find target genes of mycolactone, mRNA transcription levels of bcl-2 family genes were examined. Total RNA was prepared from mycolactone-treated Hep3B cells and the expression of 7 genes belonging to bcl-2 family by ribonuclease protection assay (RPA). Total RNA was prepared with RNeasy minikit (Qiagen Inc., Chatsworth, Calif.) as described below. Mycolactone treated cancer cells were collected and washed with PBS. Cells were suspended in lysis buffer containing β-mercaptoethanol. Cells were passed through a 20-G syringe for more than 5 times. Equal volume of 70% ethanol was added and the suspension was mixed well. The suspension was applied to RNeasy mini spin column. The column was centrifuged at 10,000 rpm for 15 seconds and washed 2 times with washing buffer plus PRE buffer. RNA attached to the column was eluted with RNase-free distilled water. RNA was stored at −70° C. before use.
The mRNA expression profile of bcl-2 family genes was examined by RPA using multi-probe RNase Protection Assay System (PharMingen, CA, USA) with the following procedures. Specific RNA probe labeled with radioisotope is synthesized and used for hybridization with the RNA prepared from each sample. After removal of single-stranded RNA that is not hybridized with the probe and the residual riboprobe, the sample is electrophoresed on a denaturing polyacrylamide gel. After autoradiography, the mRNA expression was analyzed through measuring the density of hybridized bands.
RPA is a 3-Step Procedure
1). Synthesis of probe: Probe is synthesized by incubating transcription mixture solution ([…], 1 μl GACU pool, 2 μl DTT, 4 μl 5× transcription buffer, 1 μl RPA template set, 1 μlA T7 polymerase) at 37° C. for 1 hour. The reaction was stopped by adding 2 μl of DNase. Probe synthesis was completed by phenol treatment and ethanol precipitation The precipitated probe was dissolved in 50 μl of hybridization buffer.
2) RNA preparation and hybridization: Total RNA prepared (10-20 μg) was kept at −70° C. for 15 minutes and dried completely in vacuum evaporator. Hybridization was performed by the following reactions; addition of 8 μl of hybridization buffer, vortexing and brief centrifuge; addition and mixing of 2 μl of probe diluted at about 3×10^5 cpm/μl; addition of mineral oil. Hybridization mixture was kept briefly at 90° C., then incubated at 56° C. for 12 to 16 hours. Hybridization was completed by incubating the mixture at 37° C. for 15 minutes.
3) RNase treatment, electrophoresis, and autoradiography: RNase mixture (100 μl) was added to the hybridization mixture and the non-hybridized RNA was removed by incubating at 30° C. for 45 minutes. RNase digestion was terminated by adding proteinase K mixture solution. After phenol treatment and ethanol precipitation, the sample was dried. The sample was nixed with 5 μl of 1× loading buffer, heated at 90° C. for 3-minutes, kept on ice, electrophoresed ort a denaturing polyacrylamide gel, dried, and exposed to X-ray film.

[5] = tested on: Hep3B human hepatoma cells transplanted to nude mice; test: In vivo anticancer effect in nude mice
Experimental: Hep3B human hepatoma cells were transplanted to nude mice and tumor growth was induced for 2 to 3 weeks. Then, mycolactone was injected to the tumor tissue by 4-3 days method, that is, injection for 4 days and rest for 3 days. PBS solution (50 μl) with or without mycolactone (20 μg) was injected to tumor of treatment (T) or control (C) mouse, respectively. The tumor volume was estimated by measuring both long and short diameters. The tumor volume at the day of first injection was 101.3 mm^3 (C) or 105.9 mm^3 (T).

[6] = tested on: HUVEC (Human umbilical vein endothelial cell); test: Tube formation assay (In Vitro Angiogenesis Assay Kit); format: cell-based
Experimental: HUVEC (Human umbilical vein endothelial cell, American Type Culture Collection, Manassas, Va.) cells were maintained in HAM's F-12K nutrient mixture (Sigma, St. Louis, Mo.) with 10% fetal bovine serum and endothelial cell growth supplement (Sigma, St. Louis, Mo.). Cells were plated onto a 1% gelatinized plastic surface and incubated in the presence of 5% CO2 at 37° C. Tube formation assay was performed using an In Vitro Angiogenesis Assay Kit. (Chemicon, Temecula, Calif.) with following procedures. A 50 μl of the Diluent Buffer-ECMatrix solution mixture was transferred to 96-well tissue culture plate and kept at 37° C. for 1 hour for solidification of the matrix solution. HUVEC cells were seeded onto the surface of the polymerized ECMatrix in each well and incubated in the presence of ethanol (control) or mycolactone (containing 1% of ethanol).

murine L929 cell line = settings: cited from earlier work
murine J779 cell line = settings: cited from earlier work

antisense Rb oligonucleotide: phosphorothioate-backbone antisense oligonucleotide targeting the protein initiation codon region of human Rb mRNA (antisense GGGTTTTGGGCGGCATGA; all phosphorothioate, sugars by position and methylation of C not given here)
Rb protein expression [1]: Significant time-dependent decrease

CC(=C\C=C\C(C)=C\[C@H](O)[C@@H](O)C[C@H](C)O)/C=C(C)/C=C/C(=O)O[C@H]1CCCC(=O)O[C@@H]([C@@H](C)C/C(C)=C/[C@@H](C)[C@H](O)C[C@@H](C)O)C/C=C(\C)C[C@@H]1C [mycolactone]
cancer cell death, cell morphology under light microscope [2]: Significant cell death
morphology by TEM (Hep3B cancer cells): typical apoptosis morphologies
CPP32 caspase activation maintained until [3]: 24 h
CPP32 caspase activation started at [3]: 4 h
cleavage of poly-ADP-ribose polymerase started at [3]: 8 h
cleavage of poly-ADP-ribose polymerase ([3]; after 48 hours): completely cleaved
mRNA expression of bcl-2 [4]: very low mRNA expression without significant change
mRNA expression of bcl-w [4]: No change
mRNA expression of mcl-1 ([4]; after 4 hours, maintained until 24 hours): decreased slowly
mRNA expression of mcl-1 ([4]; at 2 hour): increased transiently
mRNA expression of bcl-XL ([4]; starting at 8 hours until 24 hours): decrease
mRNA expression of pro-apoptotic genes (bad, bak, and bax) ([4]; until 24 hours after treatment): no change
tumor tissue inside the body at sacrifice ([5]; day 45, T mouse): not to have any tumor tissue
tumor, treated (T) versus control (C) mouse ([5]; first week, 20 μg injected into tumor, 4 days on, 3 days rest): no significant difference
tumor ([5]; fourth week, T mouse, 20 μg injected into tumor): disappeared
tumor volume ([5]; second week, T mouse, 20 μg injected into tumor, 105.9 mm^3 at first injection): 63.8 mm^3
tumor volume ([5]; third week, T mouse, 20 μg injected into tumor): 20.8 mm^3
condition of the treated mouse ([5]; until the day 45, T mouse): healthy
inhibition of tube formation maintained until ([6]; mycolactone 1 μg): 7.5 h
tube formation ([6]; mycolactone 1 μg, after 4 hour): inhibited
tube formation ([6]; mycolactone 5 μg, after 4 hours): almost completely inhibited
cell death with prolonged treatment (murine L929 cell line; L929, prolonged treatment): apoptosis
cytopathic effects (murine L929 cell line; L929): detaching of cells from culture plates and cell rounding-up
time to G1 cell cycle arrest (murine L929 cell line; L929): ≤ 48 h
cell death with prolonged treatment (murine J779 cell line; J779, prolonged treatment): apoptosis
time to G1 cell cycle arrest (murine J779 cell line; J779): ≤ 48 h
